Data on 19 compounds can be found in patent US20260053834A1, “COVALENT MODIFIERS OF AKT1 AND USES THEREOF” (Terremoto Biosciences, Inc., priority 2023, published 2026).

The test system of assay [1] is LAPC4 prostate cancer cells, which express the AKT1 E17K allele. Nature of the assay: Antiproliferative effects in LAPC4 cells (CellTiter Glo, 72 h). The class given is cell-based. Conditions: Homo sapiens, LAPC4, 72 h, read-out: LAPC4 proliferation IC50: GeoMean IC50. In short, it runs like this: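 IC50 values come from Hill-equation fitting of luminescence (cellular ATP) after 72 h compound exposure. Treated wells held 1,000 cells each, with compound delivered as DMSO dilutions. Culture medium was IMDM plus 12% FBS.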
In general terms: Cellular ATP, detected with luciferase, serves as a proxy for viable cell number.

For assay [2], the target named is T1, AKT1 E17K (Homo sapiens, UniProt P31749, E17K).
T1 construct: expressed in transfected cells; host or cells: HEK293
Nature of the assay: Live cell target engagement by NanoBRET competitive probe displacement, AKT1 E17K. The class given is binding. Conditions: transfected HEK293 cells, 2 h at 37° C., read-out: AKT1 E17K IC50: GeoMean IC50.

The target of assay [3] is T2, AKT1 WT (Homo sapiens, UniProt P31749).
T2 construct: expressed in transfected cells; host or cells: HEK293
Put plainly: Live cell target engagement by NanoBRET competitive probe displacement, AKT1 WT. It is filed as binding. Conditions: transfected HEK293 cells, 2 h at 37° C., read-out: AKT1 WT IC50: GeoMean IC50. Background: BRET reads energy transfer from a luciferase to a nearby fluorophore.

For assay [4], the target named is T3, AKT2 (Homo sapiens, UniProt P31751).
T3 construct: expressed in transfected cells; host or cells: HEK293
Nature of the assay: Live cell target engagement by NanoBRET competitive probe displacement, AKT2. Conditions: transfected HEK293 cells, 2 h at 37° C., read-out: AKT2 IC50: GeoMean IC50. It is filed as binding.

T1 sequence (P31749 whole entry E17K): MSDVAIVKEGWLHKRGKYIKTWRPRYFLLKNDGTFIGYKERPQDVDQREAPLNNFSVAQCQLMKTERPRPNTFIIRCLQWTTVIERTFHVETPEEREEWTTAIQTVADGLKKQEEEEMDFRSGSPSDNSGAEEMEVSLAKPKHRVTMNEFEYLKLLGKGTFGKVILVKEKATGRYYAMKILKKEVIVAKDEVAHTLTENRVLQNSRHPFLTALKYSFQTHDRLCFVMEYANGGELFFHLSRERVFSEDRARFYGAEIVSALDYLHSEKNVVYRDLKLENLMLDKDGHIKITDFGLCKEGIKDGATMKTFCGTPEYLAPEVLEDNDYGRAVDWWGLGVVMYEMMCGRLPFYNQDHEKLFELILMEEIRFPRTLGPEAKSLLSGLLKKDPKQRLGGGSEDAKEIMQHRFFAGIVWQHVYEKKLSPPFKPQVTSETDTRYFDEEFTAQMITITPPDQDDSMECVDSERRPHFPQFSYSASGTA
T2 sequence (P31749 whole entry): as the sequence (P31749 whole entry E17K) above, with K17E counted along it
T3 sequence (P31751 whole entry): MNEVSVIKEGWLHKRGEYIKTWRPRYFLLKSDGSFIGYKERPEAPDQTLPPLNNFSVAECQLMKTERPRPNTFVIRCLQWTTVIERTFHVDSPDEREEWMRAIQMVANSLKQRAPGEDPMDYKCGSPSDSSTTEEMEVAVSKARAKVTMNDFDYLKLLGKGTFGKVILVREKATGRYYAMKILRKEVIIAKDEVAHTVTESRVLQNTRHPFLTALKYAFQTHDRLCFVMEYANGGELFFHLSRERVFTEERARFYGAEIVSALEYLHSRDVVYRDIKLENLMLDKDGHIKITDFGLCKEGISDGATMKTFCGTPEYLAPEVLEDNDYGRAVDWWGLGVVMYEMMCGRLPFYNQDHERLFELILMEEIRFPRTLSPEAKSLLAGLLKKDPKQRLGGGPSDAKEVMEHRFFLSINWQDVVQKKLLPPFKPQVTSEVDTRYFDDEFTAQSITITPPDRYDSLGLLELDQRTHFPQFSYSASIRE

For the compound `Cc1cc(C(=O)N[C@H]2CCc3cc(-n4c(-c5cccnc5N)nc5ccc(-c6ccccc6)nc54)ccc32)cc(C=O)c1O` [Example 41, N-[(1S)-5-[2-(2-aminopyridin-3-yl)-5-phenylimidazo[4,5-b]pyridin-3-yl]-2,3-dihydro-1H-inden-1-yl]-3-formyl-4-hydroxy-5-methylbenzamide], the IC50 was 100 to 2000 nM in assay [1], 100 to 2000 nM in assay [2], 100 to 2000 nM in assay [3] and at least 2000 nM in assay [4].

Take `Nc1ncccc1-c1nc2ccc(N3CCOCC3)nc2n1-c1ccc2c(c1)CC[C@@H]2NC(=O)c1ccc(O)c(C=O)c1` [Example 42, N-[(1S)-5-[2-(2-aminopyridin-3-yl)-5-(morpholin-4-yl)imidazo[4,5-b]pyridin-3-yl]-2,3-dihydro-1H-inden-1-yl]-3-formyl-4-hydroxybenzamide]: the IC50 in assay [1] is 100 to 2000 nM; in assay [2] it was 10 to 100 nM; in assay [3], 100 to 2000 nM; in assay [4], 100 to 2000 nM.

`CCc1ccc2nc(-c3cccnc3N)n(-c3ccc4c(c3)CC[C@@H]4NC(=O)c3ccc(O)c(C=O)c3)c2n1` [Example 43, (S)—N-(5-(2-(2-aminopyridin-3-yl)-5-ethyl-3H-imidazo[4,5-b]pyridin-3-yl)-2,3-dihydro-1H-inden-1-yl)-3-formyl-4-hydroxybenzamide]: the IC50 in assay [1] was 100 to 2000 nM; in assay [2], 10 to 100 nM; in assay [3] it was 100 to 2000 nM; in assay [4], at least 2000 nM.

For `Cc1ccc2nc(-c3cccnc3N)n(-c3ccc4c(c3)CC[C@@H]4NC(=O)c3cc(F)c(O)c(C=O)c3)c2n1` [Example 44, (S)—N-(5-(2-(2-aminopyridin-3-yl)-5-methyl-3H-imidazo[4,5-b]pyridin-3-yl)-2,3-dihydro-1H-inden-1-yl)-3-fluoro-5-formyl-4-hydroxybenzamide], the IC50 is 100 to 2000 nM in assay [1], 100 to 2000 nM in assay [2], 100 to 2000 nM in assay [3] and at least 2000 nM in assay [4].

Consider `CC(=O)Nc1ccc(C(=O)N[C@H]2CCc3cc(-n4c(-c5cccnc5N)nc5ccc(C)nc54)ccc32)cc1C=O` [Example 45, N-[(1S)-5-[2-(2-aminopyridin-3-yl)-5-methylimidazo[4,5-b]pyridin-3-yl]-2,3-dihydro-1H-inden-1-yl]-4-acetamido-3-formylbenzamide], for which the IC50 in assay [1] was 100 to 2000 nM; in assay [2] it was 100 to 2000 nM; in assay [3] it was 100 to 2000 nM; in assay [4], at least 2000 nM.

`COc1ccc2nc(-c3cccnc3N)n(-c3ccc4c(c3)CC[C@@H]4NC(=O)c3ccc(O)c(C=O)c3)c2n1` [Example 46, (S)—N-(5-(2-(2-aminopyridin-3-yl)-5-methoxy-3H-imidazo[4,5-b]pyridin-3-yl)-2,3-dihydro-1H-inden-1-yl)-3-formyl-4-hydroxybenzamide]: the IC50 in assay [1] was 100 to 2000 nM; in assay [2] it was 100 to 2000 nM; in assay [3], 100 to 2000 nM; in assay [4] it was at least 2000 nM.

Regarding `Nc1ncccc1-c1nc2ccc(-c3ccccc3)nc2n1-c1ccc2c(c1)CC[C@@H]2NC(=O)c1ccc(NC(=O)C2CC2)c(C=O)c1` [Example 47, N-[(1S)-5-[2-(2-aminopyridin-3-yl)-5-phenylimidazo[4,5-b]pyridin-3-yl]-2,3-dihydro-1H-inden-1-yl]-4-cyclopropaneamido-3-formylbenzamide], the IC50 in assay [1], in assay [2], in assay [3] and in assay [4] was 10 to 100 nM each time.

As to `Nc1ncccc1-c1nc2ccc(F)nc2n1-c1ccc2c(c1)CC[C@@H]2NC(=O)c1ccc(O)c(C=O)c1` [Example 48, N-[(1S)-5-[2-(2-aminopyridin-3-yl)-5-fluoroimidazo[4,5-b]pyridin-3-yl]-2,3-dihydro-1H-inden-1-yl]-3-formyl-4-hydroxybenzamide], the IC50 was 100 to 2000 nM in assay [1], 10 to 100 nM in assay [2], 100 to 2000 nM in assay [3] and at least 2000 nM in assay [4].

Take `Nc1ncccc1-c1nc2ccc(C3CC3)nc2n1-c1ccc2c(c1)CC[C@@H]2NC(=O)c1ccc(O)c(C=O)c1` [Example 49, N-[(1S)-5-[2-(2-aminopyridin-3-yl)-5-cyclopropylimidazo[4,5-b]pyridin-3-yl]-2,3-dihydro-1H-inden-1-yl]-3-formyl-4-hydroxybenzamide]: the IC50 was 100 to 2000 nM in assay [1], 100 to 2000 nM in assay [2], 100 to 2000 nM in assay [3] and at least 2000 nM in assay [4].

As to `C#Cc1ccc2nc(-c3cccnc3N)n(-c3ccc4c(c3)CC[C@@H]4NC(=O)c3ccc(O)c(C=O)c3)c2n1` [Example 50, N-[(1S)-5-[2-(2-aminopyridin-3-yl)-5-ethynylimidazo[4,5-b]pyridin-3-yl]-2,3-dihydro-1H-inden-1-yl]-3-formyl-4-hydroxybenzamide], the IC50 in assay [1] is 100 to 2000 nM; in assay [2], 10 to 100 nM; in assay [3] it was 100 to 2000 nM; in assay [4] it was at least 2000 nM.

For the compound `CS(=O)(=O)Nc1ccc(C(=O)N[C@H]2CCc3cc(-n4c(-c5cccnc5N)nc5ccc(-c6ccccc6)nc54)ccc32)cc1C=O` [Example 51, N-[(1S)-5-[2-(2-aminopyridin-3-yl)-5-phenylimidazo[4,5-b]pyridin-3-yl]-2,3-dihydro-1H-inden-1-yl]-3-formyl-4-methanesulfonamidobenzamide], the IC50 in assay [1] is 10 to 100 nM; in assay [2], below 10 nM; in assay [3], 10 to 100 nM; in assay [4], 10 to 100 nM.

On to `Nc1ncccc1-c1nc2ccc(-c3ccccc3)nc2n1-c1ccc2c(c1)CC[C@@H]2NC(=O)c1ccc(NC(=O)C(F)F)c(C=O)c1` [Example 52, N-[(1S)-5-[2-(2-aminopyridin-3-yl)-5-phenylimidazo[4,5-b]pyridin-3-yl]-2,3-dihydro-1H-inden-1-yl]-4-(2,2-difluoroacetamido)-3-formylbenzamide], for which the IC50 was 10 to 100 nM in assay [1], below 10 nM in assay [2], below 10 nM in assay [3] and 10 to 100 nM in assay [4].

Regarding `CC(=O)Nc1ccc(C(=O)N[C@H]2CCc3cc(-n4c(-c5cccnc5N)nc5ccc(N6CCOCC6)nc54)ccc32)cc1C=O` [Example 53, N-[(1S)-5-[2-(2-aminopyridin-3-yl)-5-(morpholin-4-yl)imidazo[4,5-b]pyridin-3-yl]-2,3-dihydro-1H-inden-1-yl]-4-acetamido-3-formylbenzamide], the IC50 in assay [1] was 100 to 2000 nM; in assay [2] it was below 10 nM; in assay [3], 10 to 100 nM; in assay [4], 100 to 2000 nM.

For `Nc1ncccc1-c1nc2ccc(-c3ccccc3)nc2n1-c1ccc2c(c1)CC[C@@H]2NC(=O)c1cnn2ccc(O)c(C=O)c12` [Example 54, N-[(1S)-5-[2-(2-aminopyridin-3-yl)-5-phenylimidazo[4,5-b]pyridin-3-yl]-2,3-dihydro-1H-inden-1-yl]-4-formyl-5-hydroxypyrazolo[1,5-a]pyridine-3-carboxamide], the IC50 is at least 2000 nM in assay [1], 100 to 2000 nM in assay [2], 10 to 100 nM in assay [3] and 100 to 2000 nM in assay [4].

On to `Nc1ncccc1-c1nc2ccc(C(F)(F)F)nc2n1-c1ccc2c(c1)CC[C@@H]2NC(=O)c1ccc(O)c(C=O)c1` [Example 55, (S)—N-(5-(2-(2-aminopyridin-3-yl)-5-(trifluoromethyl)-3H-imidazo[4,5-b]pyridin-3-yl)-2,3-dihydro-1H-inden-1-yl)-3-formyl-4-hydroxybenzamide], for which the IC50 in assay [1] was at least 2000 nM; in assay [2], 100 to 2000 nM; in assay [3], 100 to 2000 nM; in assay [4] it was at least 2000 nM.

Turning to `CC(=O)Nc1ccc(C(=O)N[C@H]2CCc3cc(-n4c(-c5cccnc5N)nc5ccc(-n6cccn6)nc54)ccc32)cc1C=O` [Example 56, N-[(1S)-5-[2-(2-aminopyridin-3-yl)-5-(pyrazol-1-yl)imidazo[4,5-b]pyridin-3-yl]-2,3-dihydro-1H-inden-1-yl]-4-acetamido-3-formylbenzamide], the IC50 in assay [1] was 10 to 100 nM; in assay [2], below 10 nM; in assay [3] it was 10 to 100 nM; in assay [4], 100 to 2000 nM.

As to `Nc1ncccc1-c1nc2ccc(-c3nccs3)nc2n1-c1ccc2c(c1)CC[C@@H]2NC(=O)c1ccc(O)c(C=O)c1` [Example 57, N-[(1S)-5-[2-(2-aminopyridin-3-yl)-5-(1,3-thiazol-2-yl)imidazo[4,5-b]pyridin-3-yl]-2,3-dihydro-1H-inden-1-yl]-3-formyl-4-hydroxybenzamide], the IC50 was 10 to 100 nM in assay [1], 10 to 100 nM in assay [2], 10 to 100 nM in assay [3] and 100 to 2000 nM in assay [4].

`Nc1ncccc1-c1nc2ccc(-c3cncnc3)nc2n1-c1ccc2c(c1)CC[C@@H]2NC(=O)c1ccc(O)c(C=O)c1` [Example 58, N-[(1S)-5-[2-(2-aminopyridin-3-yl)-5-(pyrimidin-5-yl)imidazo[4,5-b]pyridin-3-yl]-2,3-dihydro-1H-inden-1-yl]-3-formyl-4-hydroxybenzamide]: the IC50 was in the range of 10 to 100 nM in assay [1], 10 to 100 nM in assay [2], 10 to 100 nM in assay [3] and 100 to 2000 nM in assay [4].

Turning to `Cn1ccc(-c2ccc3nc(-c4cccnc4N)n(-c4ccc5c(c4)CC[C@@H]5NC(=O)c4ccc(O)c(C=O)c4)c3n2)n1` [Example 59, (S)—N-(5-(2-(2-aminopyridin-3-yl)-5-(1-methyl-1H-pyrazol-3-yl)-3Himidazo[4,5-b]pyridin-3-yl)-2,3-dihydro-1H-inden-1-yl)-3-formyl-4-hydroxybenzamide], the IC50 in assay [1] was 10 to 100 nM; in assay [2], 10 to 100 nM; in assay [3], 10 to 100 nM; in assay [4], 100 to 2000 nM.
